Consider two molecules from patent publication US11931389B2, “Tablet of sporoderm-removed ganoderma lucidum spore and preparation method thereof” (Zhejiang Shouxiangu Pharmaceutical Company, Ltd., priority 2017, dated 2024).

Where a name gives a salt, the structure may show the parent alone.

Holding throughout (type): in vivo
Assay [1] concerns human lymphatic cancer (Ramos) transplanted tumor. The assay can be described thus: Zebrafish human lymphatic cancer (Ramos) transplanted tumor model. The conditions noted are these: Danio rerio, 48 h, 2 days, read-out: Inhibition Effect. The source says:
Human lymphatic cancer (Ramos) cells were labeled with a red fluorescent dye (CM-Dil), and transplanted into zebrafish yolk sacs by microinjection, with about 200 cells being transplanted per zebrafish, so as to establish a zebrafish human lymphatic cancer transplanted tumor model.
Human lymphatic cancer (Ramos) cells were labeled with CM-Dil, and transplanted into 2 dpf wild type AB strain zebrafish yolk sacs by microinjection, with about 200 cells being transplanted per zebrafish, so as to establish a zebrafish human lymphatic cancer transplanted model; and the zebrafishes injected with the human lymphatic cancer cells were fed at 35° C. until 3 dpf.
Zebrafishes with better consistence in transplanted tumor cells were picked out under a microscope, randomly assigned to a 6-well plate, and were given in a water-dissolving administration manner respectively with the samples at concentrations respectively of 1, 3 and 9 μg/mL and the positive control drug vincristine at a concentration of 5 μM; and meanwhile a model control group was set, where there were 30 zebrafishes per well (concentration group), and the volume of each well was 5 mL. […] The inhibitory effect of the sample on the zebrafish lymphatic cancer (Ramos) transplanted tumor was evaluated with the fluorescence intensities, and the tumor inhibition effect was calculated using the following equation. […]

Assay [2] has as its system human gastric cancer (SGC-7901) transplanted tumor. Put plainly: Zebrafish human gastric cancer (SGC-7901) transplanted tumor model. The conditions noted are these: SGC-7901, 50 μM, 2 days. From the text: Human gastric cancer (SGC-7901) cells were labeled with a red fluorescent dye (CM-Dil), and transplanted into zebrafish yolk sacs by microinjection, with about 200 cells being transplanted per zebrafish, so as to establish the zebrafish human gastric cancer transplanted tumor model.
Human gastric cancer (SGC-7901) cells were labeled with CM-Dil, and transplanted into 2 dpf wild type AB strain zebrafish yolk sacs by microinjection, with about 200 cells per zebrafish, so as to establish a zebrafish human gastric cancer (SGC-7901) transplanted model; and the zebrafishes injected with the SGC-7901 cells were fed at 35° C. until 3 dpf.
Zebrafishes with better consistence in transplanted tumor cells were picked out under a microscope, randomly assigned to a 6-well plate, and were given in a water-dissolving administration manner respectively with the samples at concentrations respectively of 28, 83 and 250 μg/mL and the positive control drug cis-platinum at a concentration of 50 μM; and meanwhile a model control group was set, where there were 30 zebrafishes per well, and the volume of each well was 5 mL. […] The inhibitory effects of samples on the zebrafish gastric cancer (SGC-7901) transplanted tumor were respectively evaluated with the fluorescence intensities, and the tumor inhibition effect was calculated using the following equation. […]

For assay [3], the system named is human lung adenocarcinoma (A549) transplanted tumor. Put plainly: Zebrafish human lung adenocarcinoma (A549) transplanted tumor model. To be noted: A549, 50 μM, 2 days. From the text: Human lung adenocarcinoma (A549) cells were labeled with a red fluorescent dye (CM-Dil), and transplanted into zebrafish yolk sacs by microinjection, with about 200 cells being transplanted per zebrafish, so as to establish a zebrafish human lung adenocarcinoma transplanted tumor model.
Human lung adenocarcinoma (A549) cells were labeled with CM-Dil, and transplanted into 2 dpf wild type AB strain zebrafish yolk sacs by microinjection, with about 200 cells being transplanted per zebrafish, so as to establish a zebrafish human lung adenocarcinoma (A549) transplanted model; and the zebrafishes injected with the A549 cells were fed at 35° C. until 3 dpf.
Zebrafishes with better consistence in transplanted tumor cells were picked out under a microscope, randomly assigned to a 6-well plate, and were given in a water-dissolving administration manner respectively with the samples at concentrations respectively of 1, 3 and 9 μg/mL and the positive control drug cis-platinum at a concentration of 50 μM; and meanwhile a model control group was set, where there were 30 zebrafishes per well (concentration group), and the volume of each well was 5 mL. […] The inhibitory effect of the sample No. 3 on the zebrafish lung adenocarcinoma (A549) transplanted tumor was evaluated with the fluorescence intensities, and the tumor inhibition effect was calculated using the following equation. […]

Consider `CC[C@]1(O)C[C@H]2CN(CCc3c([nH]c4ccccc34)[C@@](C(=O)OC)(c3cc4c(cc3OC)N(C=O)[C@H]3[C@@](O)(C(=O)OC)[C@H](OC(C)=O)[C@]5(CC)C=CCN6CC[C@]43[C@@H]65)C2)C1` [vincristine, Vincristine sulfate], for which the inhibition at 5 µM in assay [1] is 35%.

In the case of `N.N.[Cl][Pt][Cl]` [cis-platinum, Cis-platinum], the “Inhibition Effect” value is 37% in assay [2] and 29% in assay [3].
